What was measured:
CD4+IL17A+ T cells = experiment: Th17 differentiation and IL-17 production in DC/CD4+ T cell co-culture; format: cell-based, mouse; settings: peptide-stimulated DCs; naïve T cells, Th17-polarizing cocktail, 6 days
Method: DBA/1 bone marrow-derived CD11c+DCs were cultured overnight in the presence or absence of (A) ISL 65-79*0401 or ISL-negative control 65-79*0402, or (B) ISL-positive T-DRB1*0401 tetramers, versus ISL-negative T-DRB1*0301, or T-DRB1*1501 tetramers. Syngeneic splenic CD4+CD25−CD62L+CD44− naïve T cells plus a Th17-differentiation cytokine/antibody cocktail were then added to the culture and incubated for 6 days. Intracellular IL17A was determined by flow cytometry. On the left: a representative experiment, one of three repetitions, showing percentages of CD4+IL17A+ cells as dot plots. On the right: bar graphs show results presented as mean percentage±SD of replicate samples.
(A) DBA/1 bone marrow-derived CD11c+ DCs were cultured overnight with different peptidic ligands as above. Syngeneic splenic CD4+ T cells plus a Th17-polarizing cocktail were added to the culture and incubated for 6 days. IL-17A-positive cells were quantified by flow cytometry. On the left: dot plots showing percentage of CD4+IL17A+ T cells. […]
After 6 days, cells were stimulated with PMA (5 ng/ml) and ionomycin (500 ng/ml) for the last 6 hrs of culture. […] Mean florescence intensity and percentages of stained cells were determined by flow cytometry.

CD4+CD25+Foxp3+ Treg = experiment: Treg differentiation in DC/CD4+ T cell co-culture; format: cell-based, mouse; settings: 50 μg/ml peptide; for Treg differentiation (CD4+CD25+Foxp3+ abundance): DCs co-cultured with naïve CD4+CD25−CD62L+CD44− T cells, 5 days
Method: (A) DBA/1 bone marrow-derived CD11c+DCs were cultured overnight with 50 μg/ml SL ligand 65-79*0401 or ISL-negative control 65-79*0402, or medium. Syngeneic splenic CD4+ T cells were then added to the culture, and incubated with anti-CD3 and TGF-β for 5 days. On the left, flow cytometry dot plots showing percentages of CD25+Foxp3+ cells obtained from gated CD4+ T cells in each treatment. Each plot is representative of three experiments. On the right, bar graphs present results as mean percentage±SD of replicate samples. (B) Cultures were performed as in (A), with the exception that CD4+CD25− CD62L+CD44− naïve T cells, instead of CD4+ T cells were added to the CD11c+DCs. (C) DBA/1 bone marrow-derived CD11c+DCs were incubated overnight with 2 μg/ml tetramers (ISL-positive T-DRB1*0401, versus ISL-negative T-DRB1*0301, or T-DRB1*1501). Syngeneic CD4+CD25−CD62L+CD44− naïve T cells, anti-CD3 and TGF-β were then added to the culture and incubated for 5 days and analyzed as above.
DBA/1 bone marrow-derived CD11c+DCs were placed in 24-well plates (BD Biosciences, San Jose, Calif.) at a density of 2.5×10^5 cells per well and cultured overnight with or without 50 μg/ml of peptidic (65-79*0401 or 65-79*0402), or 2 μg/ml of tetrameric (T-DR1*0401, T-DR1*0301, or T-DR1*1501) ligands at 37° C. On the following day, 5.0×10^5 CD4+ T cells or CD4+CD25−CD62L+CD44− naïve T cells, isolated as described above, were added to each well in addition to anti-CD3 antibodies (5 μg/ml) and rhTGFβ (2.5 ng/ml).
After 5 days in culture, cells were harvested and stained for flow cytometric analysis using FITC anti-mouse CD4 (clone […]), PE anti-mouse CD25 (clone PC61) and isotype controls (Biolegend, San Diego, Calif.). […] After permeabilization, cells were stained using an APC-conjugated anti-mouse Foxp3 antibody (clone FLK-16S from e-Bioscience, San Diego, Calif.) and analyzed by FACScalibur flow cytometer using the CELLQuest™ software (Becton Dickinson, Franklin Lakes, N.J.).

CD11c+DCs = experiment: IL-23 and IL-6 production in LPS-stimulated bone marrow-derived CD11c+DCs (ELISA); format: cell-based, mouse; settings: LPS-treated DCs (100 ng/ml LPS)
Method: DBA/1 bone marrow-derived CD11c+DCs were cultured with or without 100 ng/ml LPS in the presence or absence of ISL-positive or ISL-negative 15mer peptides (50 μg/ml). Supernatants were collected at different time points and assayed for IL-23 and IL-6 content by ELISA.
To determine the rate of NO production, cells were loaded with 20 μM of the fluorescent NO probe 4,5-diaminofluorescein diacetate (DAF-2DA) and the fluorescence level was recorded every 5 minutes over a period of 500 minutes using a Fusion αHT system (PerkinElmer Life Sciences) at an excitation wavelength of 488 nm and emission wavelength of 515 nm. To determine IDO enzymatic activity, the generation of its product, kynurenine was measured (Takikawa et al. 1988. J Biol Chem 263:2041-2048.; herein incorporated by reference in its entirety). Cytokine concentrations were measured in cell culture supernatants using a Luminex platform (Millipore Corporation, Danvers, Mass.). In some experiments, cytokines were determined using ELISA (Quantikine®, R&D Systems, Minneapolis, Minn.) following the manufacture's instruction.

[1] = tested on: Human fibroblast M1 cells; settings: previously determined; cited from earlier work

H-KDLLEQKRAAVDTYC-NH2 [65-79*0401]
differentiation of CD4+IL17A+ T cells (CD4+IL17A+ T cells): significant increase | Treg expansion (CD4+CD25+Foxp3+ abundance) (CD4+CD25+Foxp3+ Treg; DCs co-cultured with CD4+ T cells, TGF-β, anti-CD3, 5 days): significantly inhibited | Treg differentiation (CD4+CD25+Foxp3+ abundance) (CD4+CD25+Foxp3+ Treg): significantly inhibited | Treg differentiation (CD4+CD25+Foxp3+ abundance) (CD4+CD25+Foxp3+ Treg; listed as 65-79*040): statistically significant, yet modest | IL-23 production (CD11c+DCs): augmented | optimal concentration for NO production [1]: 50 µM
